According to patent publication US20140329863A1 (priority 2011, published 2014):
Read-outs that look alike come from different tables or passages of the source.

Assays:
[1] = test system: IMR32 cells; type: cell-based, human
[2] = test system: PrP^C in T98G cells; type: cell-based, human
[3] = test system: PrP^C in IMR32 cells; type: cell-based, human
[4] = test system: T98G cells; test: cells; type: cell-based, human; conditions: calcein, T98G cells
[5] = test system: PrP^Sc in nondividing ScN2a-cl3 cells; type: cell-based, mouse; conditions: read-out: Non-Dividing ELISA EC50 (μM) Mean (n = 3); ScN2a-c13 non-dividing cells; mean n = 3
[6] = test system: PrP^Sc in dividing ScN2a-cl3 cells; type: cell-based, mouse; design: Dividing ELISA pEC50 (μM) 1st Expt. / Dividing ELISA pEC50 (μM) 2nd Expt. / Dividing ELISA pEC50 (μM) 3rd Expt. / Dividing ELISA pEC50 (μM) Mean: unit not given here; conditions: ScN2a-cl3 dividing cells
[7] = test system: N2a-cl3 cells; test: cells; conditions: Mus musculus, N2a-cl3, read-out: Dividing Calcein EC50 (μM) Mean (n = 3)
[8] = test system: PrP^Sc in dividing ScN2a-c13 cells; conditions: dividing ScN2a-c13 cells
[9] = read-out: Dividing ELISA EC50 (μM) 1st Expt., 1st determination
[10] = read-out: Dividing ELISA EC50 (μM) 2nd Expt., 2nd determination
[11] = read-out: Dividing ELISA EC50 (μM) 3rd Expt., 3rd determination
[12] = read-out: Dividing ELISA EC50 (μM) Mean, mean of three determinations

Structure (SMILES)	% Inhibition: Calcein (IMR32) [1] [%]	% Inhibition: SPC (T98G) [2]	% Inhibition: SPC (IMR32) [3]	% Inhibition: Calcein (T98G) [4] [%]	also measured
Cc1cc(C)c(S(=O)(=O)NCc2ccccc2)c(C)c1 [IND-0014135]	4	MW: 289.4 % Inhibition SPC (IMR32): 55 Calcein: 4 SPC (T98G): 39 Calcein: 9	MW: 289.4 % Inhibition SPC (IMR32): 55 Calcein: 4 SPC (T98G): 39 Calcein: 9	9	
Cc1[nH]c2ccccc2c1-c1ccnc2ccccc12 [IND-0010878]	19	MW: 318.4 % Inhibition: SPC (IMR32): 34 Calcein: 19 SPC (T98G): 64 Calcein: 25	MW: 318.4 % Inhibition: SPC (IMR32): 34 Calcein: 19 SPC (T98G): 64 Calcein: 25	25	
Cc1nc2sccn2c1-c1csc(Nc2ccc(N(C)C)cc2)n1 [IND-0009688]	38	MW: 288.8 % Inhibition: SPC (IMR32): 66 Calcein: 38 SPC (T98G): 31 Calcein: 8	MW: 288.8 % Inhibition: SPC (IMR32): 66 Calcein: 38 SPC (T98G): 31 Calcein: 8	8	
CCS(=O)(=O)c1ncc(Cl)c(C(=O)Nc2ccc(F)cc2)n1 [IND-0081737]	18	MW: 343.8 % Inhibition: SPC (IMR32): 41 Calcein: 18 SPC (T98G): −10 Calcein: −4	MW: 343.8 % Inhibition: SPC (IMR32): 41 Calcein: 18 SPC (T98G): −10 Calcein: −4	−4	
COc1ccc(C(NC(C)=O)c2ccc3cccnc3c2O)cc1 (centres unmarked) [IND-0058521]	17	MW: 322.4 % Inhibition: SPC (IMR32): 56 Calcein: 17 SPC (T98G): 49 Calcein: 3	MW: 322.4 % Inhibition: SPC (IMR32): 56 Calcein: 17 SPC (T98G): 49 Calcein: 3	3	
CC(=O)N1CCc2c([nH]c3ccccc23)C1c1ccc(Cl)cc1 (centres unmarked) [IND-0017998]	7	MW: 324.8 % Inhibition: SPC (IMR32): 73 Calcein: 7 SPC (T98G): 74 Calcein: −19	MW: 324.8 % Inhibition: SPC (IMR32): 73 Calcein: 7 SPC (T98G): 74 Calcein: −19	−19	
COc1ccc(NC(=O)Nc2ccc(SC(F)(F)F)cc2)cc1 [IND-0002925]	13	MW: 342.3 % Inhibition: SPC (IMR32): 22 Calcein: 13 SPC (T98G): 62 Calcein: −10	MW: 342.3 % Inhibition: SPC (IMR32): 22 Calcein: 13 SPC (T98G): 62 Calcein: −10	−10	
N#Cc1c(NC(=O)CCc2cccs2)sc2c1CCCC2 [IND-0082865]	37	MW: 316.4 % Inhibition: SPC (IMR32): 60 Calcein: 37 SPC (T98G): 51 Calcein: 17	MW: 316.4 % Inhibition: SPC (IMR32): 60 Calcein: 37 SPC (T98G): 51 Calcein: 17	17	
COc1ccccc1C(=O)N1CCN(c2cccc(Cl)c2)CC1 [IND-0021750]	25	MW: 330.8 % Inhibition: SPC (IMR32): 44 Calcein: 25 SPC (T98G): 52 Calcein: 21	MW: 330.8 % Inhibition: SPC (IMR32): 44 Calcein: 25 SPC (T98G): 52 Calcein: 21	21	
Cc1cccc(N2CCN(C(=O)c3ccc4c(c3)OCO4)CC2)c1C [IND-0023025]	15	MW: 338.4 % Inhibition: SPC (IMR32): 34 Calcein: 15 SPC (T98G): 34 Calcein: 26	MW: 338.4 % Inhibition: SPC (IMR32): 34 Calcein: 15 SPC (T98G): 34 Calcein: 26	26	
CC(C)(C)NCC(O)COc1ccc(C23CC4CC(CC(C4)C2)C3)cc1 (centres unmarked) [IND-0003070]	34	MW: 285.4 % Inhibition: SPC (IMR32): 94 Calcein: 34 SPC (T98G): −55 Calcein: −13	MW: 285.4 % Inhibition: SPC (IMR32): 94 Calcein: 34 SPC (T98G): −55 Calcein: −13	−13	
CC(C)c1ccc(NC(=O)Nc2cnccn2)cc1 [IND-0088907]	9	MW: 256.3 % Inhibition: SPC (IMR32): 4 Calcein: 9 SPC (T98G): 46 Calcein: 27	MW: 256.3 % Inhibition: SPC (IMR32): 4 Calcein: 9 SPC (T98G): 46 Calcein: 27	27	
CCc1ccc(C2C(C#N)=C(N)Oc3cc(N(C)C)ccc32)cc1 (centres unmarked) [IND-0020681]	39	MW: 319.4 % Inhibition: SPC (IMR32): 48 Calcein: 39 SPC (T98G): 43 Calcein: 21	MW: 319.4 % Inhibition: SPC (IMR32): 48 Calcein: 39 SPC (T98G): 43 Calcein: 21	21	
COc1ccc(C(=O)NCc2cc(C)nc3ccccc23)cc1 [IND-0086056]	18	MW: 306.4 % Inhibition: SPC (IMR32): 45 Calcein: 18 SPC (T98G): 49 Calcein: 20	MW: 306.4 % Inhibition: SPC (IMR32): 45 Calcein: 18 SPC (T98G): 49 Calcein: 20	20	
Cc1cccc(Nc2nc(-c3ccncc3)cs2)c1 [IND-0022317]	35	MW: 267.4 % Inhibition: SPC (IMR32): 87 Calcein: 35 SPC (T98G): 65 Calcein: 5	MW: 267.4 % Inhibition: SPC (IMR32): 87 Calcein: 35 SPC (T98G): 65 Calcein: 5	5	
COc1ccc(S(=O)(=O)Nc2cc(C)ccc2C)cc1 [IND-0007902]	36	MW: 291.4 % Inhibition: SPC (IMR32): 38 Calcein: 36 SPC (T98G): 51 Calcein: 19	MW: 291.4 % Inhibition: SPC (IMR32): 38 Calcein: 36 SPC (T98G): 51 Calcein: 19	19	
Cc1ccc(Nc2nc(C)cs2)nc1 [compound 29, (5-Methylpyridin-2-yl)-(4-methylthiazol-2-yl)-amine]					EC50 [5]: > 32 µM; melting point: 212 to 214 °C; Dividing ELISA pEC50 (μM) 1st Expt. ([6]; 1st determination): >4.5; Dividing ELISA pEC50 (μM) 2nd Expt. ([6]; 2nd determination): >4.5; Dividing ELISA pEC50 (μM) 3rd Expt. ([6]; 3rd determination): >4.5; EC50 [6, 9]: > 32 µM; EC50 [6, 10]: > 32 µM; EC50 [6, 11]: > 32 µM; EC50 [6, 12]: > 32 µM; EC50 [7]: > 32 µM; antiprion activity (in words) [8]: inactive
COc1ccnc(Nc2nc(-c3cc(-c4ccccc4)no3)cs2)c1 [compound 41, (4-Methoxypyridin-2-yl)-[4-(3-phenylisoxazol-5-yl)-thiazol-2-yl]-amine]					EC50 [5]: > 32 µM; melting point: 177 to 179 °C; Dividing ELISA pEC50 (μM) 1st Expt. ([6]; 1st determination): 6.43; Dividing ELISA pEC50 (μM) 2nd Expt. ([6]; 2nd determination): 6.78; Dividing ELISA pEC50 (μM) 3rd Expt. ([6]; 3rd determination): 6.66; Dividing ELISA pEC50 (μM) Mean ([6]; mean of three determinations): 6.62; EC50 [6, 9]: 0.369 µM; EC50 [6, 10]: 0.166 µM; EC50 [6, 11]: 0.219 µM; EC50 [6, 12]: 0.251 µM; EC50 [7]: > 32 µM; EC50 ([8]; read-out: EC50 (ELISA), reduction of PrP^Sc load): 0.25 µM
CNc1nc(-c2ccc(OC)c(OC)c2)cs1 [compound 5, 4-(3,4-dimethoxyphenyl)-N-methyl-1,3-thiazol-2-amine]					EC50 [5]: > 32 µM; melting point: 120 to 123 °C; Dividing ELISA pEC50 (μM) 1st Expt. ([6]; 1st determination): >4.5; Dividing ELISA pEC50 (μM) 2nd Expt. ([6]; 2nd determination): >4.5; Dividing ELISA pEC50 (μM) 3rd Expt. ([6]; 3rd determination): >4.5; EC50 [6, 9]: > 32 µM; EC50 [6, 10]: > 32 µM; EC50 [6, 11]: > 32 µM; EC50 [6, 12]: > 32 µM; EC50 [7]: > 32 µM; antiprion activity (in words) [8]: without significant activity
